Source: patent US20090306012A1, “THERAPEUTIC PROTOCOLS” (priority 2001, published 2009)

System: neutrophils
Assay: Phase I clinical trial of 5-fluorouracil + HA (Hyfive) in metastatic colorectal cancer: toxicity, neutrophil counts
[1] = Patient 2, cycle Day 3, 5FU Cycle 1, HyFive Cycle 2
[2] = Patient 2, cycle Day 7, 5FU Cycle 1, HyFive Cycle 2
[3] = Patient 2, cycle Day 9, 5FU Cycle 1, HyFive Cycle 2
[4] = Patient 2, cycle Day 11, 5FU Cycle 1, HyFive Cycle 2
[5] = Patient 2, cycle Day 14, 5FU Cycle 1, HyFive Cycle 2
[6] = Patient 2, cycle Day 16, 5FU Cycle 1, HyFive Cycle 2
[7] = Patient 2, cycle Day 18, 5FU Cycle 1, HyFive Cycle 2
[8] = Patient 2, cycle Day 21, 5FU Cycle 1, HyFive Cycle 2
[9] = Patient 2, cycle Day 23, 5FU Cycle 1, HyFive Cycle 2
[10] = Patient 2, cycle Day 25, 5FU Cycle 1, HyFive Cycle 2
[11] = Patient 4, cycle Day 4, HyFive Cycle 1, 5FU Cycle 2
[12] = Patient 4, cycle Day 5, HyFive Cycle 1, 5FU Cycle 2
[13] = Patient 4, cycle Day 8, HyFive Cycle 1, 5FU Cycle 2
[14] = Patient 4, cycle Day 10, HyFive Cycle 1, 5FU Cycle 2
[15] = Patient 4, cycle Day 12, HyFive Cycle 1, 5FU Cycle 2
[16] = Patient 4, cycle Day 15, HyFive Cycle 1, 5FU Cycle 2
[17] = Patient 4, cycle Day 17, HyFive Cycle 1, 5FU Cycle 2
[18] = Patient 4, cycle Day 19, HyFive Cycle 1, 5FU Cycle 2
[19] = Patient 4, cycle Day 22, HyFive Cycle 1, 5FU Cycle 2
[20] = Patient 4, cycle Day 24, HyFive Cycle 1, 5FU Cycle 2
[21] = Patient 4, cycle Day 26, HyFive Cycle 1, 5FU Cycle 2
[22] = Patient 5, cycle Day 5, 5FU Cycle 1, HyFive Cycle 2
[23] = Patient 5, cycle Day 10, 5FU Cycle 1, HyFive Cycle 2
[24] = Patient 5, cycle Day 12, 5FU Cycle 1, HyFive Cycle 2
[25] = Patient 5, cycle Day 15, 5FU Cycle 1, HyFive Cycle 2
[26] = Patient 5, cycle Day 17, 5FU Cycle 1, HyFive Cycle 2
[27] = Patient 5, cycle Day 19, 5FU Cycle 1, HyFive Cycle 2
[28] = Patient 5, cycle Day 22, 5FU Cycle 1, HyFive Cycle 2
[29] = Patient 5, cycle Day 24, 5FU Cycle 1, HyFive Cycle 2
[30] = Patient 5, cycle Day 26, 5FU Cycle 1, HyFive Cycle 2
[31] = Patient 6, cycle Day 3, 5FU Cycle 1, HyFive Cycle 2
[32] = Patient 6, cycle Day 8, 5FU Cycle 1, HyFive Cycle 2
[33] = Patient 6, cycle Day 10, 5FU Cycle 1, HyFive Cycle 2
[34] = Patient 6, cycle Day 12, 5FU Cycle 1, HyFive Cycle 2
[35] = Patient 6, cycle Day 15, 5FU Cycle 1, HyFive Cycle 2
[36] = Patient 6, cycle Day 17, 5FU Cycle 1, HyFive Cycle 2
[37] = Patient 6, cycle Day 19, 5FU Cycle 1, HyFive Cycle 2
[38] = Patient 6, cycle Day 22, 5FU Cycle 1, HyFive Cycle 2
[39] = Patient 6, cycle Day 24, 5FU Cycle 1, HyFive Cycle 2
[40] = Patient 6, cycle Day 26, 5FU Cycle 1, HyFive Cycle 2
[41] = Patient 7, cycle Day 3, HyFive Cycle 1, 5FU Cycle 2
[42] = Patient 7, cycle Day 5, HyFive Cycle 1, 5FU Cycle 2
[43] = Patient 7, cycle Day 8, HyFive Cycle 1, 5FU Cycle 2
[44] = Patient 7, cycle Day 10, HyFive Cycle 1, 5FU Cycle 2
[45] = Patient 7, cycle Day 15, HyFive Cycle 1, 5FU Cycle 2
[46] = Patient 7, cycle Day 17, HyFive Cycle 1, 5FU Cycle 2
[47] = Patient 7, cycle Day 19, HyFive Cycle 1, 5FU Cycle 2
[48] = Patient 7, cycle Day 22, HyFive Cycle 1, 5FU Cycle 2
[49] = Patient 7, cycle Day 24, HyFive Cycle 1, 5FU Cycle 2
[50] = Patient 7, cycle Day 26, HyFive Cycle 1, 5FU Cycle 2

Procedure: The 5-FU±HA was given by intravenous administration over one hour on a four week cycle. The initial dose of 5-FU in this study was 450 mg/m^2 daily for three days and the dose of HA 500 mg/m^2 with each administration of 5-FU. Dose escalation occurred in two steps to reach the standard dose of 450 mg/m^2 for five consecutive days with each cycle. Therefore, the initial dose level was 450 mg/r^2 daily for three days, the next 450 mg/m^2 for four days and the final 450 mg/m^2 daily for five days.

O=c1[nH]cc(F)c(=O)[nH]1 [5FU, 5-fluorouracil]
Neutrophil Count [1]: 7.6
Neutrophil Count as % Day 1 [1]: 82%
Neutrophil Count [2]: 8.4
Neutrophil Count as % Day 1 [2]: 90%
Neutrophil Count [3]: 8.3
Neutrophil Count as % Day 1 [3]: 89%
Neutrophil Count [4]: 6.8
Neutrophil Count as % Day 1 [4]: 73%
Neutrophil Count [5]: 7
Neutrophil Count as % Day 1 [5]: 75%
Neutrophil Count [6]: 7.3
Neutrophil Count as % Day 1 [6]: 78%
Neutrophil Count [7]: 8.4
Neutrophil Count as % Day 1 [7]: 90%
Neutrophil Count [8]: 8.2
Neutrophil Count as % Day 1 [8]: 88%
Neutrophil Count [9]: 7.8
Neutrophil Count as % Day 1 [9]: 84%
Neutrophil Count [10]: 8.7
Neutrophil Count as % Day 1 [10]: 94%
Neutrophil Count (Patient 2 L-F (Day 3 Tx), cycle Day 1, 5FU Cycle 1, HyFive Cycle 2): 9.3
Neutrophil Count [11]: 4.4
Neutrophil Count as % Day 1 [11]: 86%
Neutrophil Count [12]: 4.4
Neutrophil Count as % Day 1 [12]: 86%
Neutrophil Count [13]: 5
Neutrophil Count as % Day 1 [13]: 98%
Neutrophil Count [14]: 10.3
Neutrophil Count as % Day 1 [14]: 202%
Neutrophil Count [15]: 6.9
Neutrophil Count as % Day 1 [15]: 135%
Neutrophil Count [16]: 6.7
Neutrophil Count as % Day 1 [16]: 131%
Neutrophil Count [17]: 7.5
Neutrophil Count as % Day 1 [17]: 147%
Neutrophil Count [18]: 6.5
Neutrophil Count as % Day 1 [18]: 127%
Neutrophil Count [19]: 6.1
Neutrophil Count as % Day 1 [19]: 120%
Neutrophil Count [20]: 7.9
Neutrophil Count as % Day 1 [20]: 155%
Neutrophil Count [21]: 5.3
Neutrophil Count as % Day 1 [21]: 104%
Neutrophil Count (Patient 4 C-X (4 Day Tx), cycle Day 1, HyFive Cycle 1, 5FU Cycle 2): 5.1
Neutrophil Count [22]: 4.5
Neutrophil Count as % Day 1 [22]: 107%
Neutrophil Count [23]: 4.1
Neutrophil Count as % Day 1 [23]: 98%
Neutrophil Count [24]: 4.3
Neutrophil Count as % Day 1 [24]: 102%
Neutrophil Count [25]: 3.7
Neutrophil Count as % Day 1 [25]: 88%
Neutrophil Count [26]: 3.3
Neutrophil Count as % Day 1 [26]: 79%
Neutrophil Count [27]: 4.3
Neutrophil Count as % Day 1 [27]: 102%
Neutrophil Count [28]: 4.3
Neutrophil Count as % Day 1 [28]: 102%
Neutrophil Count [29]: 4
Neutrophil Count as % Day 1 [29]: 95%
Neutrophil Count [30]: 4.5
Neutrophil Count as % Day 1 [30]: 107%
Neutrophil Count (Patient 5 J-M (5 Day Tx), cycle Day 1, 5FU Cycle 1, HyFive Cycle 2): 4.2
Neutrophil Count [31]: 4.3
Neutrophil Count as % Day 1 [31]: 81%
Neutrophil Count [32]: 4.5
Neutrophil Count as % Day 1 [32]: 85%
Neutrophil Count [33]: 6.6
Neutrophil Count as % Day 1 [33]: 125%
Neutrophil Count [34]: 4.5
Neutrophil Count as % Day 1 [34]: 85%
Neutrophil Count [35]: 4.2
Neutrophil Count as % Day 1 [35]: 79%
Neutrophil Count [36]: 5.5
Neutrophil Count as % Day 1 [36]: 104%
Neutrophil Count [37]: 5.3
Neutrophil Count as % Day 1 [37]: 100%
Neutrophil Count [38]: 5.7
Neutrophil Count as % Day 1 [38]: 108%
Neutrophil Count [39]: 5.4
Neutrophil Count as % Day 1 [39]: 102%
Neutrophil Count [40]: 5
Neutrophil Count as % Day 1 [40]: 94%
Neutrophil Count (Patient 6 J-B (5 Day Tx), cycle Day 1, 5FU Cycle 1, HyFive Cycle 2): 5.3
Neutrophil Count [41]: 2.3
Neutrophil Count as % Day 1 [41]: 77%
Neutrophil Count [42]: 2.8
Neutrophil Count as % Day 1 [42]: 93%
Neutrophil Count [43]: 3.2
Neutrophil Count as % Day 1 [43]: 107%
Neutrophil Count [44]: 2.5
Neutrophil Count as % Day 1 [44]: 83%
Neutrophil Count [45]: 2.7
Neutrophil Count as % Day 1 [45]: 90%
Neutrophil Count [46]: 2.5
Neutrophil Count as % Day 1 [46]: 83%
Neutrophil Count [47]: 3
Neutrophil Count as % Day 1 [47]: 100%
Neutrophil Count [48]: 3.4
Neutrophil Count as % Day 1 [48]: 113%
Neutrophil Count [49]: 3.1
Neutrophil Count as % Day 1 [49]: 103%
Neutrophil Count [50]: 3.5
Neutrophil Count as % Day 1 [50]: 117%
Neutrophil Count (Patient 7 V-D (5 Day Tx), cycle Day 1, HyFive Cycle 1, 5FU Cycle 2): 3
